Test results taken from patent publication US20070043049A1, “Substituted heterocyclic diarylamine analogues” (Neurogen Corporation, priority 2003, published 2007).

Target: T1, human capsaicin receptor (Homo sapiens, UniProt Q8NER1)
T1 construct: pBK-CMV expression construct encoding the full length human capsaicin receptor; expressed in transfected cells
Assay: Calcium mobilization assay, determination of antagonist activity (Example 6)
Type: cell-based
Conditions: 50% decrease in fluorescence response of cells expressing human capsaicin receptor exposed to capsaicin
Experimental: A cDNA encoding full length human capsaicin receptor (SEQ ID NO:1, 2 or 3 of U.S. Pat. No. 6,482,611) was subcloned in the plasmid pBK-CMV (Stratagene, La Jolla, Calif.) for recombinant expression in mammalian cells.
Human embryonic kidney (HEK293) cells were transfected with the pBK-CMV expression construct encoding the full length human capsaicin receptor using standard methods. The transfected cells were selected for two weeks in media containing G418 (400 μg/ml) to obtain a pool of stably transfected cells. Independent clones were isolated from this pool by limiting dilution to obtain clonal stable cell lines for use in subsequent experiments.
Cells transfected with expression plasmids (as described in Example 4) and thereby expressing human capsaicin receptor are seeded and grown to 70-90% confluency in FALCON black-walled, clear-bottomed 96-well plates (#3904, BECTON-DICKINSON, Franklin Lakes, N.J.). The culture medium is emptied from the 96 well plates and FLUO-3 AM calcium sensitive dye (Molecular Probes, Eugene, Oreg.) is added to each well (dye solution: 1 mg FLUO-3 AM, 440 μL DMSO and 440 μl 20% pluronic acid in DMSO, diluted 1:250 in Krebs-Ringer HEPES (KRH) buffer (25 mM HEPES, 5 mM KCl, 0.96 mM NaH2PO4, 1 mM MgSO4, 2 mM CaCl2, 5 mM glucose, 1 mM probenecid, pH 7.4), 50 μl diluted solution per well). Plates are covered with aluminum foil and incubated at 37° C. for 1-2 hours in an environment containing 5% CO2. After the incubation, the dye is emptied from the plates, and the cells are washed once with KRH buffer, and resuspended in KRH buffer.
To measure the ability of a test compound to agonize or antagonize a calcium mobilization response in cells expressing capsaicin receptors to capsaicin or other vanilloid agonist, the EC50 of the agonist capsaicin is first determined. An additional 20 μl of KRH buffer and 1 μl DMSO is added to each well of cells, prepared as described above. 100 μl capsaicin in KRH buffer is automatically transferred by the FLIPR instrument to each well. Capsaicin-induced calcium mobilization is monitored using either FLUOROSKAN ASCENT (Labsystems; Franklin, Mass.) or FLIPR (fluorometric imaging plate reader system; Molecular Devices, Sunnyvale, Calif.) instruments. Data obtained between 30 and 60 seconds after agonist application are used to generate an 8-point concentration response curve, with final capsaicin concentrations of 1 nM to 3 μM. KALEIDAGRAPH software (Synergy Software, Reading, Pa.) is used to fit the data to the equation: y=a*(1/(1+(b/x)^c)) to determine the 50% excitatory concentration (EC50) for the response. In this equation, y is the maximum fluorescence signal, x is the concentration of the agonist or antagonist (in this case, capsaicin), a is the Emax, b corresponds to the EC50 value and c is the Hill coefficient. Determination of Agonist Activity
Test compounds are dissolved in DMSO, diluted in 20 μl KRH buffer so that the final concentration of test compounds in the assay well is between 1 μM and 5 μM, and added to cells prepared as described above. The 96 well plates containing prepared cells and test compounds are incubated in the dark, at room temperature for 0.5 to 6 hours. It is important that the incubation not continue beyond 6 hours. Just prior to determining the fluorescence response, 100 μl capsaicin in KRH buffer at twice the EC50 concentration determined as described above is automatically added by the FLIPR instrument to each well of the 96 well plate for a final sample volume of 200 μl and a final capsaicin concentration equal to the EC50. The final concentration of test compounds in the assay wells is between 1 μM and […]. […] The concentration of antagonist required to provide a 50% decrease, relative to the response observed in the presence of capsaicin and without antagonist, is the IC50 for the antagonist, and is preferably below 1 micromolar, 100 nanomolar, 10 nanomolar or 1 nanomolar.

T1 sequence (Q8NER1 whole entry): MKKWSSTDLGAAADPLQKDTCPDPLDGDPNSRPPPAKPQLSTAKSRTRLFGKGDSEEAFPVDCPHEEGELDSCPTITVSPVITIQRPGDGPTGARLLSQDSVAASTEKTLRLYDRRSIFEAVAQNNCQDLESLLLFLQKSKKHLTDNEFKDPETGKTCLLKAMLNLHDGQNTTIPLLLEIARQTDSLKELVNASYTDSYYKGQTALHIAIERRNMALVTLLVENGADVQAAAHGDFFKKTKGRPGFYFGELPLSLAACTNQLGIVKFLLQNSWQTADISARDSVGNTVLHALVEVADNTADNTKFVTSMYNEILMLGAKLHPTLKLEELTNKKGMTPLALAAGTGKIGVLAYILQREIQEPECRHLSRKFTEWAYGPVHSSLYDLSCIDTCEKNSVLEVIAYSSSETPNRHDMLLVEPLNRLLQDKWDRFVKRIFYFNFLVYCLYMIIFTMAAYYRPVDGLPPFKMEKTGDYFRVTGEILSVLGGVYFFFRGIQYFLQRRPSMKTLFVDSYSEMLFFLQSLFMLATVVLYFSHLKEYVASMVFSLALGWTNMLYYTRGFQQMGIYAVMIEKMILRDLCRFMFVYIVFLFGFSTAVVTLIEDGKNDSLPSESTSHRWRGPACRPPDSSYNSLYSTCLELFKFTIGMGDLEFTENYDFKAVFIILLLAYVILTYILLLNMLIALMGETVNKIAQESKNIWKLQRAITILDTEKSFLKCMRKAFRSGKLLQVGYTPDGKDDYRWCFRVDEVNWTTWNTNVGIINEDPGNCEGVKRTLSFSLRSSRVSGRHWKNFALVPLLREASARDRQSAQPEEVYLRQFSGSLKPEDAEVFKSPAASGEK

Row | SMILES | IC50
1 | CCCCNc1nc(Nc2ccc(C(F)(F)F)cc2)nc(N2CCN(c3ncccc3Cl)C[C@H]2C)n1 [Compound 19, N-Butyl-6-[4-(3-chloro-pyridin-2-yl)-2-methyl-piperazin-1-yl]-N′-(4-trifluoromethyl-phenyl)-[1,3,5]triazine-2,4-diamine (R)] | ≤ 1000 nM
2 | CC(C)N(C)c1nc(Nc2ccc(C(F)(F)F)cc2)nc(N2CCN(c3ncccc3C(F)(F)F)CC2)n1 [Compound 47, N-Isopropyl-N-methyl-N′-(4-trifluoromethyl-phenyl)-6-[4-(3-trifluoromethyl-pyridin-2-yl)-piperazin-1-yl]-[1,3,5]triazine-2,4-diamine] | ≤ 1000 nM
3 | C[C@H]1CN(c2ncccc2Cl)CCN1c1nc(Nc2ccc(C(F)(F)F)cc2)nc(N(C)C)n1 [Compound 53, 6-[4-(3-Chloro-pyridin-2-yl)-2-methyl-piperazin-1-yl]-N,N-dimethyl-N′-(4-trifluoromethyl-phenyl)-[1,3,5]triazine-2,4-diamine (S)] | ≤ 1000 nM
4 | Fc1cccc(Nc2nc(N3CCCCCC3)nc(N3CCN(c4ncccc4Cl)CC3)n2)c1 [Compound 78, {4-Azepan-1-yl-6-[4-(3-chloro-pyridin-2-yl)-piperazin-1-yl]-[1,3,5]triazin-2-yl}-(3-fluoro-phenyl)-amine] | ≤ 1000 nM
5 | CC(C)N(C)c1nc(Nc2ccc(C(F)(F)F)cc2)nc(N2CCN(c3ncccc3Cl)CC2)n1 [Compound 49, 6-[4-(3-Chloro-pyridin-2-yl)-piperazin-1-yl]-N-isopropyl-N-methyl-N′-(4-trifluoromethyl-phenyl)-[1,3,5]triazine-2,4-diamine] | ≤ 1000 nM
6 | CCN(CC)c1nc(Nc2cccc(OC)c2)nc(N2CCN(c3ncccc3Cl)CC2)n1 [Compound 93, 6-[4-(3-Chloro-pyridin-2-yl)-piperazin-1-yl]-N,N-diethyl-N′-(3-methoxy-phenyl)-[1,3,5]triazine-2,4-diamine] | ≤ 1000 nM
7 | Fc1ccc(Nc2nc(N3CCOCC3)nc(N3CCN(c4ncccc4Cl)CC3)n2)cc1F [Compound 68, {4-[4-(3-Chloro-pyridin-2-yl)-piperazin-1-yl]-6-morpholin-4-yl-[1,3,5]triazin-2-yl}-(3,4-difluoro-phenyl)-amine] | ≤ 1000 nM
8 | Cc1nc(Nc2ccc(C(F)(F)F)cc2)nc(N2CCN(c3ncccc3Cl)CC2)n1 [Compound 82, {4-[4-(3-Chloro-pyridin-2-yl)-piperazin-1-yl]-6-methyl-[1,3,5]triazin-2-yl}-(4-trifluoromethyl-phenyl)-amine] | ≤ 1000 nM
9 | CCN(CC)c1nc(Nc2ccc(F)c(F)c2)nc(N2CCN(c3ccccn3)CC2)n1 [Compound 95, N-(3,4-Difluoro-phenyl)-N′,N′-diethyl-6-(4-pyridin-2-yl-piperazin-1-yl)-[1,3,5]triazine-2,4-diamine] | ≤ 1000 nM
10 | COc1ccccc1N1CCN(c2nc(Nc3ccc(C(C)(C)C)cc3)nc(OCc3ccccc3C(F)(F)F)n2)CC1 [Compound 12, (4-tert-Butyl-phenyl)-[4-[4-(2-methoxy-phenyl)-piperazin-1-yl]-6-(2-trifluoromethyl-benzyloxy)-[1,3,5]triazin-2-yl]-amine] | ≤ 1000 nM
11 | CCN(CC)c1nc(Nc2cc(OC)ccc2OC)nc(N2CCN(c3ccccn3)CC2)n1 [Compound 108, N-(2,5-Dimethoxy-phenyl)-N′,N′-diethyl-6-(4-pyridin-2-yl-piperazin-1-yl)-[1,3,5]triazine-2,4-diamine] | ≤ 1000 nM
12 | Cc1ccc(Nc2nc(N3CCOCC3)nc(N3CCN(c4ncccc4C(F)(F)F)CC3)n2)cc1 [Compound 64, {4-Morpholin-4-yl-6-[4-(3-trifluoromethyl-pyridin-2-yl)-piperazin-1-yl]-[1,3,5]triazin-2-yl}-p-tolyl-amine] | ≤ 1000 nM
13 | CCN(CC)c1nc(Nc2cccc(F)c2)nc(N2CCN(c3ncccc3Cl)CC2)n1 [Compound 71, 6-[4-(3-Chloro-pyridin-2-yl)-piperazin-1-yl]-N,N-diethyl-N′-(3-fluoro-phenyl)-[1,3,5]triazine-2,4-diamine] | ≤ 1000 nM
14 | Fc1ccc(Nc2cc(N3CCN(c4ccccn4)CC3)nc(N3CCOCC3)n2)cc1 [Compound 98, (4-Fluoro-phenyl)-[2-morpholin-4-yl-6-(4-pyridin-2-yl-piperazin-1-yl)-pyrimidin-4-yl]-amine] | ≤ 1000 nM
15 | Fc1cccc(Nc2nc(N3CCCC3)nc(N3CCN(c4ncccc4Cl)CC3)n2)c1 [Compound 73, {4-[4-(3-Chloro-pyridin-2-yl)-piperazin-1-yl]-6-pyrrolidin-1-yl-[1,3,5]triazin-2-yl}-(3-fluoro-phenyl)-amine] | ≤ 1000 nM
16 | CC(C)CNc1nc(Nc2ccc(C(F)(F)F)cc2)nc(N2CCN(c3ncccc3Cl)C[C@H]2C)n1 [Compound 40, 6-[4-(3-Chloro-pyridin-2-yl)-2-methyl-piperazin-1-yl]-N-isobutyl-N′-(4-trifluoromethyl-phenyl)-[1,3,5]triazine-2,4-diamine (R)] | ≤ 1000 nM

Now from value to compound:

Row | IC50 | SMILES
17 | ≤ 1000 nM | CCCCN(CCCC)c1nc(Nc2ccc(C(F)(F)F)cc2)nc(N2CCN(c3ncccc3Cl)C[C@H]2C)n1 [Compound 34, N,N-Dibutyl-6-[4-(3-chloro-pyridin-2-yl)-2-methyl-piperazin-1-yl]-N′-(4-trifluoromethyl-phenyl)-[1,3,5]triazine-2,4-diamine (R)]
18 | ≤ 1000 nM | C[C@@H]1CN(c2ncccc2Cl)CCN1c1nc(NCc2ccccc2)nc(Nc2ccc(C(F)(F)F)cc2)n1 [Compound 38, N-Benzyl-6-[4-(3-chloro-pyridin-2-yl)-2-methyl-piperazin-1-yl]-N′-(4-trifluoromethyl-phenyl)-[1,3,5]triazine-2,4-diamine (R)]
19 | ≤ 1000 nM | CCN(C)c1nc(Nc2cccc(F)c2)nc(N2CCN(c3ncccc3Cl)CC2)n1 [Compound 72, 6-[4-(3-Chloro-pyridin-2-yl)-piperazin-1-yl]-N-ethyl-N′-(3-fluoro-phenyl)-N-methyl-[1,3,5]triazine-2,4-diamine]
20 | ≤ 1000 nM | C[C@@H]1CN(c2ncccc2F)CCN1c1nc(Nc2ccc(C(F)(F)F)cc2)nc(OCc2ccccc2C(F)(F)F)n1 [Compound 10, [4-[4-(3-Fluoro-pyridin-2-yl)-2-methyl-piperazin-1-yl]-6-(2-trifluoromethyl-benzyloxy)-[1,3,5]triazin-2-yl]-(4-trifluoromethyl-phenyl)-amine (R)]
21 | ≤ 1000 nM | CC(C)CCNc1nc(Nc2ccc(C(F)(F)F)cc2)nc(N2CCN(c3ncccc3C(F)(F)F)CC2)n1 [Compound 21, N-(3-Methyl-butyl)-N′-(4-trifluoromethyl-phenyl)-6-[4-(3-trifluoromethyl-pyridin-2-yl)-piperazin-1-yl]-[1,3,5]triazine-2,4-diamine]
22 | ≤ 1000 nM | CN(C)c1nc(Nc2ccccc2)nc(N2CCN(c3ncccc3C(F)(F)F)CC2)n1 [Compound 51, N,N-Dimethyl-N′-phenyl-6-[4-(3-trifluoromethyl-pyridin-2-yl)-piperazin-1-yl]-[1,3,5]triazine-2,4-diamine]
23 | ≤ 1000 nM | CCCNc1nc(Nc2ccc(C(F)(F)F)cc2)nc(N2CCN(c3ncccc3Cl)C[C@H]2C)n1 [Compound 22, 6-[4-(3-Chloro-pyridin-2-yl)-2-methyl-piperazin-1-yl]-N-propyl-N′-(4-trifluoromethyl-phenyl)-[1,3,5]triazine-2,4-diamine (R)]
24 | ≤ 1000 nM | COCc1nc(Nc2ccc(F)c(F)c2)cc(N2CCN(c3ncccc3C(F)(F)F)CC2)n1 [Compound 109, (3,4-Difluoro-phenyl)-{2-methoxymethyl-6-[4-(3-trifluoromethyl-pyridin-2-yl)-piperazin-1-yl]-pyrimidin-4-yl}-amine]
